US20240293588A1, “THERAPEUTIC CONJUGATES” (Starpharma Pty Ltd, priority 2020, published 2024)

What was measured:
MDA-MB-231 cells [1] = test: GI50 panel (MTT assay), MDA-MB-231; format: cell-based
SKOV-3 cells [2] = test: GI50 panel (MTT assay), SKOV-3; format: cell-based
SK-Br-3 cells = test: GI50 panel (MTT assay), SK-BR-3; format: cell-based
NCI-N87 cells = test: GI50 panel (MTT assay), NCI-N87; format: cell-based
OE-19 cells = test: GI50 panel (MTT assay), OE19; format: cell-based
BT474 tumours = test: Radiotherapeutic efficacy (177Lu) in BT474 xenograft model; format: in vivo, Balb/c nude mice; conditions: 177Lu-labelled test articles, IV
Method: Healthy in female Balb/c nude mice (aged 9 weeks) were obtained from the Animal Resource Centre, Western Australia. A total of four mice per dosing group were initially implanted with estrogen pellets (17Beta-estradiol 0.72 mg/pellet 60 Day Release; Innovative Research of America) and then on day 2 were innoculated subcutaneously in the breast mammary fat pad with 10×10^6 BT474 cells in PBS:Matrigel (1:1). Mice were weighed, and tumours measured 2-3 times weekly using electronic callipers. Tumour volume (mm^3) were calculated as ((length (mm)×((width (mm))^2)/2. Mice were randomised into eight dosing groups outlined in the Table below as tumours reached mean volumes of approximately 100 mm^3 (approximately 5 weeks from implantation of cells).
Samples of each solution were taken and mixed 1:1 with 50 mM DTPA. 5 μL of each DTPA incubated sample or neat solution was spotted on TLC paper (Agilent iTLC-SG Glass microfiber chromatography paper impregnated with silica gel) and run with 50:50 H2O:ethanol. Detection of radiolabelled species migration was then achieved using an Eckert and Ziegler Mini-Scan and Flow-Count system. […] Control experiments were conducted to monitor the elution behaviour of free ^177Lu and ^177Lu bound to DTPA for quality control. […]

MDA-MB-231 cells [3] = test: Cytotoxicity alamarBlue assay, MDA-MB-231 (HER2 lo); format: cell-based; conditions: 48 h; for Cell viability %: mean ± sd, n=4
Method: (§1) The cytotoxicity of Compound 71 (control) and Compound 123 (targeted) toward MDA-MB-231, and MDA-MB-231/HER2 transfected cells were evaluated via alamarBlue assays. Cells were seeded at a density of 5×10^3, in 96-well plates and incubated overnight. Cells were then treated with indicated concentrations of test compositions for 48 h. AlamarBlue (Thermo Fisher, DAL1025) was added during the final 4 h of incubation. Reduction of alamarBlue in living cells yields a red fluorescent metabolite that can be read on a plate reader (560 nm excitation/610 nm emission). Cell viability and subsequent IC50 was determined from the blank corrected dose-response curves, with 4-parameter nonlinear nonlinear curve fit, variable slope (four parameters) in GraphPad Prism 7.02. […] Compound 123 (targeted) is approximately 140-fold increase in MDA-MB-231/HER2 cell growth inhibition compared to Compound 71 (control).

[4] = tested on: MDA-MB-231/HER2 transfected cells; test: Cytotoxicity alamarBlue assay, MDA-MB-231/HER2 (HER2 hi); format: cell-based; conditions: 48 h; for Cell viability %: mean ± sd, n=4
Method: MDA-MB-231 breast cancer cells were transfected with plasmid HER2 WT Addgene, 16257) using Lipofectamine 3000 according to manufacturer's instructions. After passaging in the presence of 500 μg/ml Geneticin (Thermo Fisher, catalogue 10131035), cells with stable overexpression of HER2 WT were isolated by fluorescence activated single cell sorting using a MoFlo Astrios (Beckman Coulter). A clonal cell population isolated from this process was further passaged in Geneticin before a second round of cell sorting and screening for transgene expression. A selected clone was then further expanded and stocks of this cell line, referred to as MDA-MB-231/HER2, were cryopreserved to generate a master stock of stably transduced cells.
as §1

[5] = tested on: MDA-MB-231 cells (HER2 lo); test: In vitro association study (flow cytometry), MDA-MB-231; format: cell-based, human; conditions: MDA-MB-231, over 24 h, result in words
[6] = tested on: MDA-MB-231/HER2 (HER2 knock in) cells; test: In vitro association study (flow cytometry), MDA-MB-231/HER2; format: cell-based, human
SKOV-3 cells [7] = test: In vitro association study (flow cytometry), SKOV-3; format: cell-based, human
Method: The HER2-expressing human metastatic carcinoma cell line MDA-MB-453 (ATCC HTB-131) and the HER2-lo epithelial adenocarcinoma cell line MDA-MB-231 (ATCC HTB-26) were maintained in Dulbecco's Modified Eagle's Medium (DMEM) containing 10% FBS and penicillin-streptomycin (100 U/mL) at 37° C. under a 5% CO2 humidified atmosphere and subcultured prior to confluence using trypsin. Human adenocarcinoma ovary cell line SKOV-3 (ATCC® HTB-77) cells were maintained in RPMI media with the addition of 10% (v/v) FBS and penicillin-streptomycin (100 U/mL) at 37° C. in a 5% CO2 humidified atmosphere and subcultured prior to confluence.
MDA-MB-231, MDA-MB-231/HER2 (HER2 knock in) (as described in Ex 6 above), or SKOV-3 cells were seeded in a 24-well plate (1×10^5 cells per well) in 500 μL of appropriate growth media with the addition of 10% (v/v) fetal bovine serum (FBS) and incubated with Compound 36 or Compound 41 at 3.33 nM, with incubation time varied from 1 to 24 h at 37° C. in a 5% CO2 humidified atmosphere. […] Cellular binding and association of sample were then determined through flow cytometry by the acquisition of the signal from Cy5.
To measure internalisation kinetics, nanobody-dendrimer was incubated with cells for 24, 4, 1, 0.5, and 0.1 hours at 37° C. before unbound nanobody-dendrimer was removed by washing and analysed by flow cytometry.

MDA-MB-231 cells [8] = test: Confocal cellular uptake, MDA-MB-231; format: cell-based; conditions: MDA-MB-231, 3.33 nM, 24 h
Method: MDA-MB-231, MDA-MB-231/HER2 and SKOV-3 cells were plated at 1.0×10^4 cells per well into μ-slide 8-well chambered coverslip (ibidi) and allowed to adhere overnight at 37° C., 5% CO2. Compound 71 and Compound 123 (3.33 nM) were then added and allowed to incubate for 1, 3, 6, and 24 h. The cells were washed and then fixed with 1% paraformaldehyde for 20 min at room temperature. The cell membrane was stained with Alexa Fluor 488-wheat germ agglutinin (AF488-WGA, 5 μg mL^−1) in DPBS at room temperature for 10 min. The cell nuclei were counterstained with 4′,6-diamidino-2-phenylindole (DAPI, 2 μg mL^−1) in DPBS at room temperature for 10 min. Fluorescence images and optical sections were collected using a confocal microscope (Leica SP8). Images were processed with Fiji (Image J 1.52n).

[9] = molecular target: T1, HER2 (human epidermal growth factor receptor 2) on cells (human, UniProt P04626 23-1255); test: flow cytometry (Cy5), SKOV-3 cells, 24 h
T1 construct: whole, on cells; also called ERBB2; HER2 receptor

[10] = molecular target: T1, HER2 (human epidermal growth factor …); test: flow cytometry (Cy5), MDA-MB-231/HER2 cells, 24 h

How did the GI50 (MDA-MB-231 cells [1]; Homo sapiens, MDA-MB-231, 72 h) turn out when `CS(=O)(=O)CCNCc1ccc(-c2ccc3ncnc(Nc4ccc(OCc5cccc(F)c5)c(Cl)c4)c3c2)o1` [Lapatinib, reference compound] was run?
The GI50 was 112000 nM.

And the GI50 (SKOV-3 cells [2]; Homo sapiens, SK-OV-3, 72 h)?
The GI50 was 7200 nM.

And the GI50 (SK-Br-3 cells; Homo sapiens, SK-BR-3, 72 h)?
Its GI50 is 138 nM.

What about the GI50 (NCI-N87 cells; Homo sapiens, NCI-N87, 72 h) of the same molecule?
The GI50 was 8.1 nM.

What about the GI50 (OE-19 cells; Homo sapiens, OE19, 72 h) of the same molecule?
Its GI50 is 200 nM.

“BHALys[Lys]2[Lys]4[Lys]8[Lys]16[Lys]32[(α-NHAc)30(α-NHDOTA)2(ε-NHCOPEG2000)32] [Compound RH-3-160]” was tested. Which “suppression of tumour growth” value (BT474 tumours) did it give?
Its value is “effective in suppressing tumour growth”.

With “(MeTzPh)PEG4CO-NHPEG24CO—[N(PN)2][Lys]2[Lys]4[Lys]8[((α-NHCy5)1(α-NHGlu-VC-PAB-MMAE)7)(ε-NH-COPEG1100)8], G3 [Compound 71]” as the molecule, how does the GI50 (MDA-MB-231 cells [1]; MDA-MB-231, MTT, 72 h, Kadcyla based on estimated weight ADC, footnote: based on MMAE drug equivalents) read?
The GI50 was 12500 nM.

What about the GI50 (SKOV-3 cells [2]; SKOV-3, MTT, 72 h, Kadcyla based on estimated weight ADC, footnote: based on MMAE drug equivalents) of the same molecule?
Its GI50 is 1600 nM.

And the GI50 (SK-Br-3 cells; SK-BR-3, MTT, 72 h, Kadcyla based on estimated weight ADC, footnote: based on MMAE drug equivalents)?
Its GI50 is 948 nM.

And the GI50 (NCI-N87 cells; NCI-N87, MTT, 72 h, Kadcyla based on estimated weight ADC, footnote: based on MMAE drug equivalents)?
The GI50 was 2040 nM.

And the GI50 (OE-19 cells; OE19, MTT, 72 h, Kadcyla based on estimated weight ADC, footnote: based on MMAE drug equivalents)?
The GI50 was 6120 nM.

And the Cell viability % (MDA-MB-231 cells [3]; MDA-MB-231, MMAE concentration 1 × 10^−5 M)?
Its Cell viability % is 94.2 ± 12.1%.

And the Cell viability % (MDA-MB-231 cells [3]; MDA-MB-231, MMAE concentration 1 × 10^−6 M)?
Its Cell viability % is 94.4 ± 8.2%.

What about the Cell viability % (MDA-MB-231 cells [3]; MDA-MB-231, MMAE concentration 1 × 10^−7 M) of the same molecule?
The Cell viability % was 94.2 ± 12.5%.

What about the Cell viability % (MDA-MB-231 cells [3]; MDA-MB-231, MMAE concentration 1 × 10^−8 M) of the same molecule?
The Cell viability % was 96.6 ± 11.7%.

What about the Cell viability % (MDA-MB-231 cells [3]; MDA-MB-231, MMAE concentration 5 × 10^−5 M) of the same molecule?
The Cell viability % was 81.1 ± 5.4%.

And the IC50 (MDA-MB-231 cells [3]; MDA-MB-231, alamarBlue, MMAE concentration)?
Its IC50 is “Ambiguous”.

And the Cell viability % ([4]; MDA-MB-231/HER2, MMAE concentration 1 × 10^−5 M)?
The Cell viability % was 61.6 ± 3.1%.

And the Cell viability % ([4]; MDA-MB-231/HER2, MMAE concentration 1 × 10^−6 M)?
The Cell viability % was 78.2 ± 9.1%.

What about the Cell viability % ([4]; MDA-MB-231/HER2, MMAE concentration 1 × 10^−7 M) of the same molecule?
Its Cell viability % is 96.1 ± 3.6%.

And the Cell viability % ([4]; MDA-MB-231/HER2, MMAE concentration 1 × 10^−8 M)?
The Cell viability % was 95.4 ± 7.6%.

And the Cell viability % ([4]; MDA-MB-231/HER2, MMAE concentration 5 × 10^−5 M)?
Its Cell viability % is 49.9 ± 15.0%.

And the IC50 ([4]; MDA-MB-231/HER2, alamarBlue, MMAE concentration)?
The IC50 was 2840 nM.

And the “binding towards cell line (flow cytometry)” value (“binding towards cell line” below) [5]?
The value was “minimal binding”.

And the “mean fluorescence intensity (Cy5)” value ([6]; MDA-MB-231/HER2, 3.33 nM, 24 h, 37° C., mean±SD, n=3)?
The value was 16.05±1.89.

And the “binding towards cell line” value ([6]; MDA-MB-231/HER2, over 24 h, result in words)?
The value was “minimal binding”.

And the “mean fluorescence intensity (Cy5)” value (SKOV-3 cells [7]; SKOV-3, 3.33 nM, 24 h, 37° C., mean±SD, n=3)?
Its value is 16.4±6.86.

And the “binding towards cell line” value (SKOV-3 cells [7]; SKOV-3, over 24 h, result in words)?
Its value is “minimal binding”.

What about the “association with cells (confocal microscopy)” value (MDA-MB-231 cells [8]) of the same molecule?
Its value is “little”.

B1: Nanobody*-N3/DBCO-NHCO-PEG12TCO/(MeTzPh)PEG4CO-NHPEG24CO-[N(PN)2][Lys]2[Lys]4[Lys]8[((α-NHCy5)1(α-NHGlu-VC-PAB-MMAE)7)(ε-NH-COPEG1100)8], Compound 123 (VHH)
VHH: EVQLVESGGSLVQPGGSLRLSCAASGFTFDDYAMSWVRQVPGKGLEWVSSINWSGTHTDYADSVKGRFTISRNNANNTLYLQMNSLKSEDTAVYYCAKNWRDAGTTWFEKSGSAGQGTQVTVSS
modifications: C-terminal # (unnatural amino acid, p-azido-phenylalanine) clicked to DBCO-NHCO-PEG12-TCO, joined to the tetrazine at the core of the G3 lysine dendrimer (1 Cy5, 7 Glu-VC-PAB-MMAE, 8 PEG1100)
notes: T0004 r280 names the protein Nanobody*; No synthesis paragraph for this compound; also called 2D3 nanobody targeted dendrimer
How did the “fold fluorescence over Compound 71 (untargeted control)” value [9] turn out when B1 was run?
Its value is roughly 16 fold.

And the “fold fluorescence over Compound 71 (untargeted control)” value [10]?
The value was roughly 9 fold.
